Source: patent US10392348B2, “2-oxo-3,4-dihydroquinoline compounds as plant growth regulators” (Syngenta Participations AG, priority 2015, dated 2019)
Where two headings read alike, the source gives them in different places.

Legend:
[1] = test system: soybean plants (variety S20-G7); assay: Reduced plant water use in soybean (foliar spray, repeated weighing of pots); assay type: in vivo; conditions: Glycine max, foliar, Table B1, sprayed at 500 μM, vs negative control
Procedure, shortened: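 Compounds in blank EC formulation diluted in water with EXTRAVON 1 g/20 L, foliar-sprayed on 12-day-old soybean in growth chambers. Water use from repeated pot weighing at a.m./p.m. periods over 0-2 DAA, summed to cumulative 0-2.5 DAA; ANCOVA with pre-application baseline covariate, relative to blank-formulation control.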

[2] = test system: corn plants (variety NK OCTET); assay: Reduced plant water use in corn (foliar spray, repeated weighing of pots); assay type: in vivo; conditions: Zea mays, corn plants sprayed at 500 μM, average of 6 pots
Procedure, shortened: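 Twelve-day-old corn plants sprayed on foliage with EC formulations diluted in water with 0.4% rape seed methyl ester. Day-time water use tracked by repeated pot weighing through 2.5 DAA, summed cumulatively; analysed by covariance with water use 1 day before application as baseline.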

[3] = 0 h, 0 DAA a.m. (10:30-12:50), read-out: % WU 0 DAA AM
[4] = 24 h, 1 DAA a.m. (7:30-12:50), read-out: % WU 1DAA AM
[5] = 24 h, 1 DAA p.m. (14:00-19:50), read-out: % WU 1DAA PM
[6] = 48 h, 2 DAA a.m. (07:30-12:50), read-out: % WU 2 DAA AM
[7] = 48 h, 2 DAA p.m. (14:00-19:50), read-out: % WU 2 DAA PM
[8] = 60 h, cumulative total WU (0-2.5 DAA), read-out: % WU Total 0 to 2.5 DAA
[9] = 0 h, water use during day time vs negative control, 0 DAA a.m. (10:30-12:50), read-out: % WU 0 DAA AM
[10] = 0 h, water use during day time vs negative control, 0 DAA p.m. (14:00-19:50), read-out: % WU 0DAA PM
[11] = 24 h, water use during day time vs negative control, 1 DAA a.m. (07:30-12:50), read-out: % WU 1DAA AM
[12] = 24 h, water use during day time vs negative control, 1 DAA p.m. (14:00-19:50), read-out: % WU 1DAA PM
[13] = 48 h, water use during day time vs negative control, 2 DAA a.m. (07:30-12:50), read-out: % WU 2 DAA AM
[14] = 48 h, water use during day time vs negative control, 2 DAA p.m. (14:00-19:50), read-out: % WU 2 DAA PM
[15] = 60 h, cumulative total water use 0-2.5 DAA (sum of the time points) vs negative control, read-out: % WU Total 0 to 2.5 DAA

| SMILES | melting point | change in vivo at 500 µM [1, 3] | change in vivo at 500 µM [1, 4] | change in vivo at 500 µM [1, 5] | change in vivo at 500 µM [1, 6] | change in vivo at 500 µM [1, 7] | change in vivo at 500 µM [1, 8] | change in vivo at 500 µM [2, 9] | change in vivo at 500 µM [2, 10] | change in vivo at 500 µM [2, 11] | change in vivo at 500 µM [2, 12] | change in vivo at 500 µM [2, 13] | change in vivo at 500 µM [2, 14] | change in vivo at 500 µM [2, 15] |
| --- | --- | --- | --- | --- | --- | --- | --- | --- | --- | --- | --- | --- | --- | --- |
| CCN1C(=O)CCc2cc(CNS(=O)(=O)c3ccc(Br)cc3)ccc21 [Compound 2.002, 4-bromo-N-[(1-ethyl-2-oxo-3,4-dihydroquinolin-6-yl)methyl]benzenesulfonamide] | 176 to 183 °C | -10.4% | -6.5% | -4% | -5.6% | -4.2% | -5.8% | -10.8% | -3.6% | -3.2% | -3.9% | -1.2% | -1.7% | -3.2% |
| CCN1C(=O)CCc2cc(CNS(=O)(=O)c3ccc(F)cc3F)ccc21 [Compound 2.006, N-[(1-ethyl-2-oxo-3,4-dihydroquinolin-6-yl)methyl]-2,4-difluoro-benzenesulfonamide] | 167 to 168 °C | -23.4% | -13.8% | -13% | -10.4% | -7.3% | -13.2% | -12.5% | -6.7% | -6.5% | -5.5% | -3% | -3.2% | -5.4% |
| CCN1C(=O)CCc2cc(CNS(=O)(=O)c3ccc(C)s3)ccc21 [Compound 2.061, N-[(1-ethyl-2-oxo-3,4-dihydroquinolin-6-yl)methyl]-5-methyl-thiophene-2-sulfonamide] | 149 to 152 °C | -50.4% | -7.9% | -2.2% | -0.5% | -1.2% | -13.7% | -18.8% | -10.8% | -7.5% | -2.8% | -1.6% | -0.8% | -6.2% |
| CCN1C(=O)CCc2cc(CNS(=O)(=O)c3ccsc3)ccc21 [Compound 2.068, N-[(1-ethyl-2-oxo-3,4-dihydroquinolin-6-yl)methyl]thiophene-3-sulfonamide] | 128 to 131 °C | -27% | -18.1% | -14.7% | -11.6% | -7.5% | -15.3% | -16.6% | -15.1% | -12.9% | -11.4% | -9.2% | -9.1% | -11.8% |
| CCCN1C(=O)CCc2cc(CNS(=O)(=O)c3ccc(Br)cc3)ccc21 [Compound 3.002, 4-bromo-N-[(2-oxo-1-propyl-3,4-dihydroquinolin-6-yl)methyl]benzenesulfonamide] | 143 to 145 °C | -22.5% | -13.7% | -9.4% | -6.7% | -4.7% | -11.4% | -16.3% | -12.2% | -13.4% | -10.5% | -9.5% | -7% | -10.9% |
| CCCN1C(=O)CCc2cc(CNS(=O)(=O)c3c(F)cccc3F)ccc21 [Compound 3.005, 2,6-difluoro-N-[(2-oxo-1-propyl-3,4-dihydroquinolin-6-yl)methyl]benzenesulfonamide] | 182 to 183 °C | -37.5% | -24.9% | -21.9% | -12.9% | -12% | -21.9% | -16.2% | -10.5% | -9.2% | -7.9% | -5.4% | -5.3% | -8.2% |
| CCCN1C(=O)CCc2cc(CNS(=O)(=O)c3ccc(F)cc3F)ccc21 [Compound 3.006, 2,4-difluoro-N-[(2-oxo-1-propyl-3,4-dihydroquinolin-6-yl)methyl]benzenesulfonamide] | 141 to 144 °C | -36.5% | -28.3% | -24.2% | -17.8% | -14.9% | -24.5% | -18% | -14.1% | -12.6% | -10.2% | -6.6% | -5.7% | -10.3% |
| CCCN1C(=O)CCc2cc(CNS(=O)(=O)c3ccccc3F)ccc21 [Compound 3.007, 2-fluoro-N-[(2-oxo-1-propyl-3,4-dihydroquinolin-6-yl)methyl]benzenesulfonamide] | 155 to 156 °C | -16.1% | -12.7% | -9.7% | -7.7% | -7.6% | -10.8% | -16% | -12% | -11.4% | -9.5% | -6.6% | -5.9% | -9.4% |
| CCCN1C(=O)CCc2cc(CNS(=O)(=O)/C=C/c3cccc(Cl)c3)ccc21 [Compound 3.069, (E)-2-(3-chlorophenyl)-N-[(2-oxo-1-propyl-3,4-dihydroquinolin-6-yl)methyl]ethenesulfonamide] | 129 to 133 °C |  |  |  |  |  |  | -8.1% | -4.1% | -6.1% | -5.5% | -4.8% | -3.8% | -5% |
